Experimental data reported in a melting point compilation (Tetko et al.; mined from patent text by program, amines drawn as free bases though some values may be those of a salt).

| Compound | melting point [°C] |
| --- | --- |
| Cc1cc(C)c2nc(C3CC3)n(Cc3ccc(C4(C(=O)O)CCCCC4)s3)c2n1 | 175 to 176 |
| CSc1nc2ccccc2n1C1CCNCC1 | 114 to 115 |
| CC(O)c1ccc(C2=CCCCC2)cc1 (configuration not stated) | 60 to 62 |
| COc1cc2ncc(C#N)c(Nc3cccc(CSC(C)=O)c3)c2cc1OC | 172 to 177 |
| O=C(NCCCn1ccnc1)C(c1ccccc1)c1ccccc1 | 136 to 138 |
| CC(=NO)c1nn(C)c2cc(Oc3ccc(Cl)cc3)ccc12 | 148 to 150 |
| Cc1cc(O)c(C(C)(C)C)cc1N | 191 to 192 |
| O=C(c1sccc1-n1cccc1)N1CCOCC1 | 100 |
| COc1ccc(OCCCCCCc2c(C)n[nH]c2O)c(Cl)c1 | 145 to 146 |
| CNS(=O)(=O)c1cc(OC)c(OC)c(C(=O)NCC2CCCN2CC2CC2)c1 (configuration not stated) | 110 to 112 |
| COc1nc2cc(Cl)cc(I)c2nc1OC | 94 to 96 |
| c1ccc(C2NCCc3ccccc32)nc1 (racemic) | 124 |
| COc1ccc(C=CC(=O)C2C(=O)C=C(C)OC2=O)cc1O (configuration not stated) | 217 to 219 |
| CS(=O)(=O)Cc1cccc(-c2nc(=O)c3ccccc3s2)n1 | 230 to 232 |
| CC(=O)Nc1ncc(Cc2ccc(Cl)cc2)c(N)n1 | 215 |
| COc1ccc(C(=O)Nc2ccc(C(=O)NC(C)(C)C)cc2)cc1C12CC3CC(CC(C3)C1)C2 | 270 to 273 |
| N#CN1CCC(=C2c3ccccc3CCc3ccncc32)CC1 | 212 to 214 |
| COc1ccc(S(=O)(=O)C2(C(=O)O)CCN(CCc3ccccc3)CC2)cc1 | 208 |
| CN(C)N=C(O)c1cc(C(=N)O)c(C(=O)O)cc1C(=O)O | 293 to 295 |
| Nc1ccc([N+](=O)[O-])c(NC(=O)c2ccccc2)c1 | 203 to 207 |
| CCOC(=O)c1ccc(N=C(Nc2ccc(C(=O)OCC)cc2)c2ccc(Cl)cc2)cc1 | 171 to 172 |
| Cc1cccc2c1N(CC(=O)N1CC3CCC(CC3)C1)C(=O)C(NC(=O)Nc1cccc(C=NO)c1)N=C2c1ccccc1F (configuration not stated) | 196 to 199 |
| CC(C)(C)OC(=O)NCCCC(=O)NCc1cccc2c1CN(C1CCC(=O)NC1=O)C2=O (configuration not stated) | 199 to 201 |
| OCc1ccc(I)cc1O | 129 to 131 |

| Compound | melting point [°C] |
| --- | --- |
| CCOC(=O)c1cn(C2CC2)c2c(CN3CCCC3)c(N3CCOCC3)c(F)cc2c1=O | 227 to 232 |
| CCCc1nc2c(N)nc3ccc(Br)cc3c2s1 | 177 to 180 |
| CC(O)C=Cc1ccc2c(c1)Cc1ccccc1-2 (configuration not stated) | 153 |
| Nc1ccc(Sc2ccccn2)cc1C(F)(F)F | 132 to 133 |
| CC(C)(C)NC(=O)NC1=CC(=O)CCC1 | 223 to 225 |
| Clc1cc2c(cc1Cl)Nc1cscc1CN2 | 195 to 197 |
| Cc1cc(S(N)(=O)=O)n(C)n1 | 63 to 66 |
| Nc1cccc2c3c([nH]c12)C=C(NC(=O)c1ccc(F)cc1)C=CC3 | 121 to 122 |
| CCOC(=O)/C=C/c1ccc(OCCC2(C)OCCO2)cc1Oc1ncc(C(F)(F)F)cc1Cl | 90 to 91 |
| COc1ccnc(CSc2nc3c(C(F)(F)F)cccc3[nH]2)c1C | 175 |
| Cc1nc(-n2cc(-c3ccc(OCc4ccccc4)cc3)nn2)sc1C(=O)NCc1ccccc1 | 237 to 240 |
| CN1OCC(=Cc2cc(C(C)(C)C)c(O)c(C(C)(C)C)c2)C1=O | 194 to 196 |
| Oc1ccc2c(c1)nnc1ccccc12 | 274 to 277 |
| COC(=O)c1cc(C(=O)CBr)c(OC(C)=O)cc1NC(=O)C(F)(F)F | 260 to 261 |
| COC(=O)CCCc1cc2nc(Cl)ccc2n1S(=O)(=O)c1cc(C)cc(C)c1 | 138 |
| CCn1ncc2c3noc(-c4cccc(F)c4)c3cnc21 | 182 to 184 |
| CCc1cccc(CC)c1NC(=O)C1c2ccccc2COc2ccc(Br)cc21 (configuration not stated) | 234 to 235 |
| Cn1cncc1C(c1cccs1)c1cccs1 | 78.5 to 80 |
| CCOC(=O)NNC(=S)NC | 117 |
| CC#CC(=O)N[C@H]1CC[C@H](CCN2CCN(c3nccc4c3CCO4)CC2)CC1 | 193 |
| CC(SC1COC(c2ccc(C(=O)Nc3ccc(F)cc3)cc2)OC1)C(O)(Cn1cncn1)c1ccc(F)cc1F (configuration not stated) | 104 |
| CC(C)(C)OC(=O)c1ncn2c1[C@@H]1CCCN1C(=O)c1sccc1-2 | 226 to 227 |
| CS(=O)(=O)Nc1ccc(C(=O)c2[nH]c3cc(Cl)ccc3c2CC(=O)O)cc1 | 207 to 210 |
| COc1ccc(CNc2cc(Cn3c(C(=O)c4cc(C)cc(C)c4)c(C(C)C)c(=O)[nH]c3=O)cc(Cl)n2)cc1 | 211 to 212 |

| Compound | melting point [°C] |
| --- | --- |
| Cc1c(C)c2c(c(C)c1OCc1ccccc1)C(c1ccc(N(C)C)cc1)C(C)(C)O2 (configuration not stated) | 110 to 112 |
| OCc1cccc(-n2cccc2)n1 | 55 |
| CCc1nc(-c2ccc(OCCCN3C(=O)c4ccccc4C3=O)cc2)no1 | 135 to 136 |
| CCCCCCCCOC(=O)C=CC(=O)OC(=C1C(=O)N(C(N)=O)c2cc(Cl)c(F)cc21)c1cccs1 | 140 to 148 |
| CS(=O)(=O)c1ccccc1OCCF | 67 to 69 |
| Cc1noc(-c2cc3c(OC[C@@H](O)CN4CCC(c5ccc6ccccc6c5)CC4)cccc3s2)n1 | 180 to 182 |
| CCc1c[nH]c(-c2ccc3c(c2)N(C(C)CN2CCCC2)c2ccccc2S3)n1 (racemic) | 197 |
| O=C1c2cc(Cl)ccc2C(O)N1c1ccc2ccc(Cl)nc2n1 (configuration not stated) | 295 to 297 |
| COc1cccc2c1c(N1CCOCC1)nc1c(-c3noc(C4CC4)n3)ncn12 | 227 to 228 |
| COc1ccc2nc(Cl)cc(C=CN(C)C)c2c1 | 162 to 164 |
| O=C1c2cccc(Br)c2C(=O)N1CCCCCn1cncn1 | 102 to 104 |
| COc1cc(COc2nn(C)cc2CO)ccc1OCc1nc(-c2ccco2)oc1C | 132 to 133 |
| Cc1nc(NC(=O)c2ccc(C#N)cc2)sc1C(=O)NCc1ccccc1 | 256 to 258 |
| CCC(=Cc1cn(CC(=O)N(C)CCc2ccccc2)c2ccc(OCc3ccccc3)cc12)C(=O)O | 205 to 207 |
| CCC(COC)NC(=O)C(Cc1ccc(OCc2ccccc2)cc1)NC(=O)C(CC(C)C)N(C)Cc1ccc(N(C)C)cc1 (configuration not stated) | 109 to 112 |
| CNc1onc2c1CCC2 | 52 |
| Clc1ccc(-c2nc3cccnc3n2Cc2ncc[nH]2)cc1 | 184 to 185 |
| COc1cc(/C=C/C=C/C(=O)NCCCC2CNCCC2c2c[nH]c3ccccc23)cc(OC)c1O (configuration not stated) | 176 to 179 |
| COc1ccc(-c2[nH]nc3c2C(=O)c2c(NC(=O)Cc4ccc(N=[N+]=[N-])cc4)cccc2-3)cc1 | > 300 |
| CCCCCCCCC/C=C(\C)C(=O)O | 28 to 31 |
| CN1CCC(O)(c2cc3ccccc3s2)CC1 | 161 to 163 |
| COc1c(C2CCN(CCCCNC(=O)c3ccc(-c4ccc(C#N)s4)nc3)CC2)ccc2c1CCCC2 | 186 to 188 |
| CCN1C(=Cc2ccc([N+](=O)[O-])cc2C#N)C=Cc2ccccc21 | 183 to 184 |
| CCOC(=O)Cc1c([N+](=O)[O-])cc([N+](=O)[O-])c2ccccc12 | 132 to 134 |
